[ ]: non-standard residue; d: D form.
Columns and labels:
[1] = tested on: growth factor-induced corneal angiogenesis; assay: In vivo rabbit eye model assay; conditions: both vFGF and VEGF stimulated eyes
Description: The effect of anti-αvβ3 antagonists on growth factor-induced angiogenesis can be observed in naturally transparent structures as exemplified by the cornea of the eye. […] Stimulators of angiogenesis, such as bFGF, when applied to the cornea induce the growth of new blood vessels from the rim of the cornea. Antagonists of angiogenesis, applied to the cornea, inhibit the growth of new blood vessels from the rim of the cornea. Thus, the cornea undergoes angiogenesis through an invasion of endothelial cells from the rim of the cornea into the tough collagen-packed corneal tissue which is easily visible. The rabbit eye model assay therefore provides an in vivo model for the direct observation of stimulation and inhibition of angiogenesis following the implantation of compounds directly into the cornea of the eye.
Each experiment consisted of eight rabbits in which one eye received a pellet comprising 100 nanograms (ng) bFGF and the other eye received a pellet comprising 1 microgram (μg) VEGF. The pellets were inserted into the corneal pocket as described above, and the cytokines subsequently stimulated the growth of new blood vessels into the cornea. […] After 7 days, the cornea were evaluated as described above.

[2] = tested on: αvβ3-expressing CS-1 cells; assay: Inhibition of cell attachment assay; format: cell-based, hamster
Experimental: As one means to determine integrin receptor specificity of the antagonists of this invention, inhibition of cell attachment assays were performed as described below.
Briefly, CS-1 hamster melanoma cells lacking expression of αvβ3 and αvβ5 were first transfected with an plasmid for expressing the […] as previously described by Filardo et al., J. Cell Biol., 130:441-450 (1995). Specificity of potential αvβ3 antagonists was determined by the ability to block the binding of αvβ3-expressing CS-1 cells to VN or laminin coated plates. As an example of a typical assay, the wells were first coated with 10 μg/ml substrate overnight. After rinsing and blocking with 1% heat-denatured BSA in PBS at room temperature for 30 minutes, peptide 85189 (SEQ ID NO: 15) over a concentration range of 0.0001 μM to 100 μM, was separately mixed with CS-1 cells for applying to wells with a cell number of 50, 000 cells/well. After a 10-15 minute incubation at 37° C., the solution containing the cells and peptides was discarded. The number of attached cells was then determined following staining with 1% crystal violet. Cell associated crystal violet was eluted by the addition of 100 microliters (μl) of 10% acetic acid. Cell adhesion was quantified by measuring the optical density of the eluted crystal violet at a wave length of 600 nm.

Substance | corneal blood vessel growth at 7 days [1] | inhibition of β3-expressing CS-1 cell adhesion to laminin ([2]; laminin) | inhibition of β3-expressing CS-1 cell adhesion to vitronectin ([2]; vitronectin)
cyclo (RADfV) (cyclo(RAD[dF]V); SMILES CC(C)[C@@H]1NC(=O)[C@@H](Cc2ccccc2)NC(=O)[C@H](CC(=O)O)NC(=O)[C@H](C)NC(=O)[C@H](CCCNC(=N)N)NC1=O) [Peptide 69601, reference compound] | substantial corneal blood vessel growth | – | –
cyclo (RGDfV) [Peptide 66203] | – | but not laminin | inhibited

Source: patent publication US20040063790A1, “Methods for inhibition of angiogenesis” (The Scripps Research Institute, priority 1996, published 2004)
